Where “and” joins values, the source holds several entries; their conditions need not be identical. Identical values can stand only once. Like-named read-outs stand apart in the source and are kept apart here.
Experiments:
Assay type in all cases: in vivo
[1] = test system: Viola tricolor (wild pansy); experiment: Greenhouse postemergence herbicidal effect on VIOTR; settings: for Herbicidal Effects (% visual injury) VIOTR Obs: Ethephon 0 g/ha
Source text: (§1) Seeds of the desired test plant species were planted in a 90:10% v/v (volume/volume) mixture of PRO-MIX® BX (Premier Tech Horticulture, Quakertown, Pa., USA) and PROFILE® GREENS GRADE™ (Profile Products LLC, Buffalo Grove, Ill., USA) planting mixture, which typically has a pH of 5.2 to 6.2 and an organic matter content of at least 50 percent, in plastic pots with a surface area of 103.2 square centimeters (cm^2). In some aspects, to help ensure good germination and healthy plants, a fungicide treatment and/or other chemical or physical treatment was applied. The plants were grown for 7-36 days (d) in a greenhouse with an approximate 14-hour (h) photoperiod which was maintained at about 23° C. during the day and 22° C. during the night. Nutrients and water were added on a regular basis and supplemental lighting was provided with overhead metal halide 1000-Watt lamps as necessary. The plants were employed for testing when they reached the second or third true leaf stage.
(§2) Emulsifiable concentrates of each of each pyridine carboxylate herbicide (Compound A or Compound B) were prepared at 100 grams acid equivalent per liter (g ae/L). The emulsifiable concentrates also included a safener, cloquintocet-mexyl, at 120 grams active ingredient per liter (g ai/L). An aliquot of each emulsifiable concentrate was placed in a 25 mL glass vial and diluted with an aqueous mixture of 1.25% (v/v) ACTIROB® B esterified rapeseed oil (Bayer Crop Science, Research Triangle Park, N.C., USA) or MSO® Concentrate with LECI-TECH® methylated soybean oil (Loveland Products, Loveland, Colo., USA) to obtain concentrated stock solutions at the highest application rate for each herbicide, based upon a 12 milliliter (mL) application volume at a rate of 187 liters per hectare (L/ha). The concentrated stock solutions were further diluted with an aqueous mixture of 1.25% v/v ACTIROB® B or MSO® Concentrate with LECI-TECH® to obtain stock solutions at reduced application rates for each herbicide. Spray solutions of the herbicide combinations (Compound A or Compound B plus the PGR) were prepared by adding weighed amounts or aliquots of the PGR to the stock solutions of Compound A or Compound B to form 12-mL spray solutions in two-way combinations.
(§3) The spray solutions were applied to the plant material with an overhead Mandel track sprayer equipped with 8002E nozzles calibrated to deliver 187 L/ha over an application area of 0.503 square meters (m^2) at a spray height of 18 inches (43 centimeters (cm)) above the average plant canopy. Control plants were sprayed in the same manner with the solvent blank. All pyridine carboxylate herbicide (component a) application rates are given as “g ae/ha” and all PGR (component b) application rates are given as “g ai/ha.”
(§4) The treated plants and control plants were placed in a greenhouse as described above and watered by sub-irrigation to prevent wash-off of the test compounds. After 20-22 d, the condition of the test plants as compared with that of the control plants was determined visually and scored on a scale of 0 to 100 percent where 0 corresponds to no injury and 100 corresponds to complete kill.

[2] = test system: Polygonum convolvulus (wild buckwheat); experiment: Greenhouse postemergence herbicidal effect on POLCO; settings: for Herbicidal Effects (% visual injury) POLCO Obs: Ethephon 0 g/ha
Source text: as §1, §2, §3, §4

[3] = test system: Euphorbia heterophylla (poinsettia); experiment: Greenhouse postemergence herbicidal effect on EPHHL; settings: for Herbicidal Effects (% visual injury) EPHHL Obs: Ethephon 0 g/ha
Source text: as §1, §2, §3, §4

[4] = test system: Helianthus annuus (common sunflower); experiment: Greenhouse postemergence herbicidal effect on HELAN; settings: for Herbicidal Effects (% visual injury) HELAN Obs: Ethephon 0 g/ha
Source text: as §1, §2, §3, §4

[5] = test system: Chenopodium album L. (common lambsquarters); experiment: Greenhouse postemergence herbicidal effect on CHEAL; settings: Ethephon 0 g/ha
Source text: as §1, §2, §3, §4

[6] = test system: Cyanus segetum (cornflower); experiment: Greenhouse postemergence herbicidal effect on CENCY
Source text: as §1
(§5) Emulsifiable concentrates of each of each pyridine carboxylate herbicide (Compound A or Compound B) were prepared at 100 grams acid equivalent per liter (g ae/L). The emulsifiable concentrates also included a safener, cloquintocet-mexyl, at 120 grams active ingredient per liter (g ai/L). […]
as §4

[7] = test system: Viola arvensis (field violet); experiment: Greenhouse postemergence herbicidal effect on VIOAR
Source text: as §1, §5, §4

[8] = test system: Matricaria inodora (scentless chamomile); experiment: Greenhouse postemergence herbicidal effect on MATIN
Source text: as §1, §5, §4

[9] = test system: Anthemis arvensis (corn chamomile); experiment: Greenhouse postemergence herbicidal effect on ANTAR
Source text: as §1, §5, §4

[10] = test system: Matricaria discoidea (pineapple weed); experiment: Greenhouse postemergence herbicidal effect on MATMT
Source text: as §1, §5, §4

[11] = test system: Matricaria chamomilla (wild chamomile); experiment: Greenhouse postemergence herbicidal effect on MATCH
Source text: as §1, §5, §4

[12] = test system: Veronica hederifolia (ivy-leaved speedwell); experiment: Greenhouse postemergence herbicidal effect on VERHE
Source text: as §1, §5, §4

[13] = test system: Papaver rhoeas (herbicide-resistant poppy); experiment: Greenhouse postemergence herbicidal effect on PAPRH-RES
Source text: as §1, §5, §4

[14] = test system: Brassica napus (winter rape); experiment: Greenhouse postemergence herbicidal effect on BRSNW
Source text: as §1, §5, §4

[15] = test system: Digitaria sanguinalis (large crabgrass); experiment: Greenhouse postemergence herbicidal effect on DIGSA; settings: Ethephon 0 g/ha
Source text: as §1, §5
as §4, with “kill. […]” for “kill.”

[16] = test system: Echinochloa crus-galli (barnyard grass); experiment: Greenhouse postemergence herbicidal effect on ECHCG; settings: Ethephon 0 g/ha
Source text: as §1, §5
as §4, with “kill. […]” for “kill.”

[17] = test system: Rumex obtusifolia (broadleaf dock); experiment: Greenhouse postemergence herbicidal effect on RUMOB; settings: Ethephon 0 g/ha
Source text: as §1, §5
as §4, with “kill. […]” for “kill.”

rice (ORYSA) = settings: Ethephon 0 g/ha
Source text: as §1, §5
as §4, with “kill. […]” for “kill.”

Question: Which results are given for N#CCOC(=O)c1nc(-c2ccc3cc[nH]c3c2F)c(F)c(N)c1Cl [Compound A, cyanomethyl 4-amino-3-chloro-5-fluoro-6-(7-fluoro-1H-indol-6-yl)pyridine-2-carboxylate]?
Answer: Herbicidal Effects (% visual injury) VIOTR Obs ([1]; Compound A 7.5 g/ha): 13%; Herbicidal Effects (% visual injury) VIOTR Obs ([1]; Compound A 10 g/ha): 20%; % visual injury Obs ([1]; herbicide 15 g ae/ha alone): 15%; Herbicidal Effects (% visual injury) POLCO Obs ([2]; Compound A 7.5 g/ha): 100%; Herbicidal Effects (% visual injury) POLCO Obs ([2]; Compound A 10 g/ha): 100%; % visual injury Obs ([2]; herbicide 7.5 g ae/ha alone): 68% and 83% and 65%; % visual injury Obs ([2]; herbicide 10 g ae/ha alone): 70% and 93% and 78%; % visual injury Obs ([2]; herbicide 15 g ae/ha alone): 85%; Herbicidal Effects (% visual injury) EPHHL Obs ([3]; Compound A 7.5 g/ha): 100%; Herbicidal Effects (% visual injury) EPHHL Obs ([3]; Compound A 10 g/ha): 100%; % visual injury Obs ([3]; herbicide 7.5 g ae/ha alone): 91%; % visual injury Obs ([3]; herbicide 10 g ae/ha alone): 83%; Herbicidal Effects (% visual injury) HELAN Obs ([4]; Compound A 7.5 g/ha): 100%; Herbicidal Effects (% visual injury) HELAN Obs ([4]; Compound A 10 g/ha): 93%; % visual injury Obs ([4]; herbicide 7.5 g ae/ha alone): 83% and 90%; % visual injury Obs ([4]; herbicide 10 g ae/ha alone): 88% and 89%; Herbicidal Effects (% visual injury) CHEAL Obs ([5]; Compound A 7.5 g/ha): 100%; Herbicidal Effects (% visual injury) CHEAL Obs ([5]; Compound A 10 g/ha): 100%; % visual injury Obs ([6]; herbicide 7.5 g ae/ha alone): 75%; % visual injury Obs ([6]; herbicide 10 g ae/ha alone): 78%; % visual injury Obs ([6]; herbicide 15 g ae/ha alone): 80%; % visual injury Obs ([7]; herbicide 7.5 g ae/ha alone): 10%; % visual injury Obs ([7]; herbicide 10 g ae/ha alone): 13%; % visual injury Obs ([7]; herbicide 15 g ae/ha alone): 10%; % visual injury Obs ([8]; herbicide 7.5 g ae/ha alone): 55%; % visual injury Obs ([8]; herbicide 10 g ae/ha alone): 60%; % visual injury Obs ([8]; herbicide 15 g ae/ha alone): 83%; % visual injury Obs ([9]; herbicide 7.5 g ae/ha alone): 68%; % visual injury Obs ([9]; herbicide 10 g ae/ha alone): 70%; % visual injury Obs ([9]; herbicide 15 g ae/ha alone): 88%; % visual injury Obs ([10]; herbicide 7.5 g ae/ha alone): 20%; % visual injury Obs ([10]; herbicide 10 g ae/ha alone): 20%; % visual injury Obs ([10]; herbicide 15 g ae/ha alone): 63%; % visual injury Obs ([11]; herbicide 7.5 g ae/ha alone): 23%; % visual injury Obs ([11]; herbicide 10 g ae/ha alone): 35%; % visual injury Obs ([11]; herbicide 15 g ae/ha alone): 45%; % visual injury Obs ([12]; herbicide 7.5 g ae/ha alone): 68%; % visual injury Obs ([12]; herbicide 10 g ae/ha alone): 73%; % visual injury Obs ([12]; herbicide 15 g ae/ha alone): 75%; % visual injury Obs ([13]; herbicide 7.5 g ae/ha alone): 96%; % visual injury Obs ([13]; herbicide 10 g ae/ha alone): 98%; % visual injury Obs ([13]; herbicide 15 g ae/ha alone): 100%; % visual injury Obs ([14]; herbicide 7.5 g ae/ha alone): 60%; % visual injury Obs ([14]; herbicide 10 g ae/ha alone): 65%; % visual injury Obs ([14]; herbicide 15 g ae/ha alone): 73%; Herbicidal Effects (% visual injury) DIGSA Obs ([15]; Compound A 7.5 g/ha): 10%; Herbicidal Effects (% visual injury) DIGSA Obs ([15]; Compound A 10 g/ha): 10%; Herbicidal Effects (% visual injury) ECHCG Obs ([16]; Compound A 7.5 g/ha): 90%; Herbicidal Effects (% visual injury) ECHCG Obs ([16]; Compound A 10 g/ha): 94%; Herbicidal Effects (% visual injury) RUMOB Obs ([17]; Compound A 7.5 g/ha): 8%; Herbicidal Effects (% visual injury) RUMOB Obs ([17]; Compound A 10 g/ha): 18%; Herbicidal Effects (% visual injury) ORYSA Obs (rice (ORYSA); Compound A 7.5 g/ha): 15%; Herbicidal Effects (% visual injury) ORYSA Obs (rice (ORYSA); Compound A 10 g/ha): 18%

Reference: patent publication US20210392890A1, “COMPOSITIONS COMPRISING PYRIDINE CARBOXYLATE HERBICIDES AND PLANT GROWTH REGULATORS” (Corteva Agriscience LLC, priority 2018, published 2021)
